For data set [1], the target named is human cytochrome P450 3A4 (Homo sapiens, UniProt P08684). The procedure: 3A4 protein produced essentially as described in “Protein purification (3)” above was used to obtain co-crystals with metyrapone, apart from replacing the CM-Sepharose column with a CM-fast flow column. Co-crystals of metyrapone were generated using crystallisation conditions of 0.1M Hepes pH 7.5, 0.25M sodium chloride, 5% MPD, 50 mM Calcium chloride, 10% (w/v) PEG 4000, and soaking the crystals in 0.5 mM metyrapone for 4 hours. […] The Fe—N bond distance was loosely restrained to […] during the refinement.
3A4 protein produced essentially as described in “Protein purification (3)” above was used to obtain co-crystals with progesterone, apart from replacing the CM-Sepharose column with a CM-fast flow column. Co-crystals of progesterone were obtained by co-crystallisation using 0.5 mM progesterone in 2.5% ethanol and crystallisation conditions of 0.1M HEPES pH 7.5, 0.25M potassium chloride, 12% (w/v) PEG 4000, 5% (w/v) MPD, 25 mM calcium chloride.
Molecular replacement was performed using the program AMORE and using the CYP3A4 crystal structure described in Table 1 as the search model. […] This molecular replacement model was then used as a starting model for subsequent refinement of other datasets from crystal form 2.
Apo (compound-free) crystals of 3A4 were obtained by setting up a 1:1 ratio of protein (at 36.5 mg/ml in buffer, 10 mM KPi, pH7.2, 20% glycerol, 1 mM EDTA, 2 mM DTT, 0.5M KCl) against 0.1 M Hepes-NaOH pH 7.5, 1.44 M sodium citrate.
Apo (compound-free) crystals of 3A4 were generated by setting up a 1:1 ratio of protein (at 36.5 mg/ml in buffer, 10 mM KPi, pH7.2, 20% glycerol, 1 mM EDTA, 2 mM DTT, 0.5M KCl) against 0.1M Hepes-NaOH pH 7.5, 1.424M Sodium citrate. The resulting crystals were soaked for 18 hours in a mother liquor containing 5 mM fluconazole, and then frozen using 0.1M Hepes-NaOH pH7.5, 1.4M sodium citrate, 15% glycerol.

A further data set deals with T1, CYP3A4 (Homo sapiens, UniProt P08684).
T1 construct: made in house; host or cells: E. coli XL1 Blue
Briefly: UV/visible spectroscopy of inhibitor binding in solution. The note with it: UV/visible spectroscopic data (not shown).

Sequence of human cytochrome P450 3A4 (P08684 with tags, fused parts or gaps): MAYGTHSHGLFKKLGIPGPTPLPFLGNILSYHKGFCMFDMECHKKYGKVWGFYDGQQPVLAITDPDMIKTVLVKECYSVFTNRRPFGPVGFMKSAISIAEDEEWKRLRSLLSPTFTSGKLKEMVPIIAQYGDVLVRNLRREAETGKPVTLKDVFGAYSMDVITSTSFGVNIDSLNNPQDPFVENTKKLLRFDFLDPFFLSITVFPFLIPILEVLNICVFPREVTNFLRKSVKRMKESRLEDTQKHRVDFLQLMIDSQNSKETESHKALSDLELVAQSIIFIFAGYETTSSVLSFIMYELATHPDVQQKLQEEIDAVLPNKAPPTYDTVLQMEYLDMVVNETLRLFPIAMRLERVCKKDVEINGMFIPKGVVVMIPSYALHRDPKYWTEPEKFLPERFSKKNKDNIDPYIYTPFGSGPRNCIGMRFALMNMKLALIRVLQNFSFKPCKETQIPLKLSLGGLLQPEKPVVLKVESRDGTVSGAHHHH
T1 sequence (P08684 with tags, fused parts or gaps): as above

Regarding `OC(Cn1cncn1)(Cn1cncn1)c1ccc(F)cc1F` [fluconazole], in data set [1], the “distance of the compound (nearest atom) from the haem iron” value is “approximately 14 Å” and the “separation of the two bound copies of the compound” value is listed as “approximately 7 Å”.
Consider `CC(C)(C(=O)c1cccnc1)c1cccnc1` [metyrapone], for which the “binding mode in solution” value on CYP3A4 was “liganded to the haem”. In data set [1], the “binding position of the compound in the 3A4 crystal structure” value is listed as “bound directly to the haem iron via a pyridine nitrogen” and the “volume occupied by the molecule in the active site” value is on record as 50 Å^3.
Regarding `CC(=O)[C@H]1CC[C@H]2[C@@H]3CCC4=CC(=O)CC[C@]4(C)[C@H]3CC[C@]12C` [progesterone], the “binding position of the compound in the 3A4 crystal structure” value in data set [1] is listed as “bound at a peripheral site very close to the Phe-cluster”.

(Values after patent US20070179716A1, “Crystal structure of cytochrome P450 3A4 and uses thereof” (ASTEX THERAPEUTICS LIMITED, priority 2001, published 2007).)
